Measurements: PubChem BioAssay AID1918942 (Molecular Pharmacology Branch, DTP, NCI, 2023)

Test system: 743489-274-T-PDC complex spheroid viability
Assay: Anticancer human tumor 743489-274-T-PDC patient-derived renal cell carcinoma cell line growth inhibition
Details: for IC50: curve of first compound; for viability, T/C: stronger effect = lower value
Summary of the method: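 Complex spheroids of tumor cells with HUVEC and human MSCs, exposed to iadademstat combined with other agents. Each agent tested in half-log steps from near clinical Cmax (else 10 microM top), DMSO ≤0.25%.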

[1] = second compound 0.1 µM, first compound 0.0316 µM
[2] = second compound 0.1 µM, first compound 0.1 µM
[3] = second compound 0.1 µM, first compound 0.316 µM
[4] = second compound 0.1 µM, first compound 1 µM
[5] = second compound 0.1 µM, first compound 3.16 µM
[6] = second compound 0.1 µM, first compound 10 µM
[7] = second compound 0.316 µM, first compound 0.0316 µM
[8] = second compound 0.316 µM, first compound 0.1 µM
[9] = second compound 0.316 µM, first compound 0.316 µM
[10] = second compound 0.316 µM, first compound 1 µM
[11] = second compound 0.316 µM, first compound 3.16 µM
[12] = second compound 0.316 µM, first compound 10 µM
[13] = second compound 1 µM, first compound 0.0316 µM
[14] = second compound 1 µM, first compound 0.1 µM
[15] = second compound 1 µM, first compound 0.316 µM
[16] = second compound 1 µM, first compound 1 µM
[17] = second compound 1 µM, first compound 3.16 µM
[18] = second compound 1 µM, first compound 10 µM
[19] = second compound 3.16 µM, first compound 0.0316 µM
[20] = second compound 3.16 µM, first compound 0.1 µM
[21] = second compound 3.16 µM, first compound 0.316 µM
[22] = second compound 3.16 µM, first compound 1 µM
[23] = second compound 3.16 µM, first compound 3.16 µM
[24] = second compound 3.16 µM, first compound 10 µM
[25] = second compound 10 µM, first compound 0.0316 µM
[26] = second compound 10 µM, first compound 0.1 µM
[27] = second compound 10 µM, first compound 0.316 µM
[28] = second compound 10 µM, first compound 1 µM
[29] = second compound 10 µM, first compound 3.16 µM
[30] = second compound 10 µM, first compound 10 µM
[31] = second compound 0.1 µM, first compound 0.00316 µM
[32] = second compound 0.1 µM, first compound 0.01 µM
[33] = second compound 0.316 µM, first compound 0.00316 µM
[34] = second compound 0.316 µM, first compound 0.01 µM
[35] = second compound 1 µM, first compound 0.00316 µM
[36] = second compound 1 µM, first compound 0.01 µM
[37] = second compound 3.16 µM, first compound 0.00316 µM
[38] = second compound 3.16 µM, first compound 0.01 µM
[39] = second compound 10 µM, first compound 0.00316 µM
[40] = second compound 10 µM, first compound 0.01 µM
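Further: spheroids exposed to compounds for 7 days before readout.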
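Wherever viability, T/C is given: 100% = DMSO vehicle control wells.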

| SMILES | IC50 (second compound 0.1 µM) | IC50 (second compound 0.316 µM) | IC50 (second compound 1 µM) | IC50 (second compound 3.16 µM) | IC50 (second compound 10 µM) | viability, T/C [1] | viability, T/C [2] | viability, T/C [3] | viability, T/C [4] | viability, T/C [7] | viability, T/C [8] | viability, T/C [9] | viability, T/C [10] | viability, T/C [13] | viability, T/C [14] | viability, T/C [15] | viability, T/C [16] | viability, T/C [19] | viability, T/C [20] | viability, T/C [21] | also measured |
| --- | --- | --- | --- | --- | --- | --- | --- | --- | --- | --- | --- | --- | --- | --- | --- | --- | --- | --- | --- | --- | --- |
| CC(C)c1c(-c2ccccc2)nc2c(C#N)c[nH]n2c1=O + NC1CCC(NC2CC2c2ccccc2)CC1 | > 10 µM | > 10 µM | > 10 µM | > 10 µM | > 10 µM | 97.2% | 115% | 104% | 127% | 106% | 99.3% | 126% | 108% | 119% | 120% | 100% | 111% | 111% | 111% | 114% | viability, T/C [5]: 99.9%; viability, T/C [6]: 104%; viability, T/C [11]: 108%; viability, T/C [12]: 104%; viability, T/C [17]: 105%; viability, T/C [18]: 114%; viability, T/C [22]: 119%; viability, T/C [23]: 98.8%; viability, T/C [24]: 112%; viability, T/C [25]: 118%; viability, T/C [26]: 121%; viability, T/C [27]: 130%; viability, T/C [28]: 121%; viability, T/C [29]: 120%; viability, T/C [30]: 104% |
| CC1COCCN1c1cc(-c2ccnn2C)c2ccnc(-c3ccn[nH]3)c2n1 (stereo not given) + NC1CCC(NC2CC2c2ccccc2)CC1 | > 1 µM | > 1 µM | > 1 µM | > 1 µM | > 1 µM | 107% | 92.6% | 81.6% | 64% | 114% | 87.1% | 83% | 62.7% | 118% | 98% | 90.2% | 59.5% | 110% | 101% | 84.5% | viability, T/C [31]: 111%; viability, T/C [32]: 109%; viability, T/C [33]: 126%; viability, T/C [34]: 110%; viability, T/C [35]: 109%; viability, T/C [36]: 128%; viability, T/C [37]: 122%; viability, T/C [38]: 138%; viability, T/C [22]: 76.1%; viability, T/C [39]: 131%; viability, T/C [40]: 117%; viability, T/C [25]: 129%; viability, T/C [26]: 105%; viability, T/C [27]: 88.9%; viability, T/C [28]: 71.7% |
| COc1ccc([C@@H](O)c2cc(-c3ncnc4cc(N5CCOCC5)ccc34)c(F)cc2Cl)nn1 + NC1CCC(NC2CC2c2ccccc2)CC1 | 2.81 µM | 2.31 µM | 1.67 µM | 1.85 µM | 1.9 µM | 110% | 109% | 87.2% | 70.9% | 125% | 121% | 99% | 65.9% | 125% | 112% | 101% | 61.6% | 124% | 123% | 92.9% | viability, T/C [5]: 47.1%; viability, T/C [6]: 34.9%; viability, T/C [11]: 46.9%; viability, T/C [12]: 18.6%; viability, T/C [17]: 34.1%; viability, T/C [18]: 19.4%; viability, T/C [22]: 62.2%; viability, T/C [23]: 41.6%; viability, T/C [24]: 17%; viability, T/C [25]: 117%; viability, T/C [26]: 120%; viability, T/C [27]: 102%; viability, T/C [28]: 66.1%; viability, T/C [29]: 38.2%; viability, T/C [30]: 26.4% |
| O=C(C=Cn1cnc(-c2cc(C(F)(F)F)cc(C(F)(F)F)c2)n1)NNc1cnccn1 + NC1CCC(NC2CC2c2ccccc2)CC1 | > 1 µM | > 1 µM | > 1 µM | > 1 µM | > 1 µM | 113% | 114% | 102% | 96% | 131% | 106% | 97.8% | 81.3% | 130% | 113% | 91.6% | 81.8% | 140% | 116% | 91.8% | viability, T/C [31]: 102%; viability, T/C [32]: 112%; viability, T/C [33]: 95%; viability, T/C [34]: 107%; viability, T/C [35]: 103%; viability, T/C [36]: 119%; viability, T/C [37]: 112%; viability, T/C [38]: 121%; viability, T/C [22]: 82.5%; viability, T/C [39]: 120%; viability, T/C [40]: 124%; viability, T/C [25]: 126%; viability, T/C [26]: 113%; viability, T/C [27]: 102%; viability, T/C [28]: 95.9% |
